Assays:
[1] = system: LNCaP95 xenografts; experiment: LNCaP95 xenografts in castrated mice; type: in vivo, NOD-SCID mice
Procedure: (§1) At 48 h, total RNA was isolated using a PureLink RNA Mini kit (Invitrogen). For in vivo expression, tumors were harvested 3 days after last treatment, and RNA was extracted using TRIzol. Prior to cDNA generation, 4 μg of RNA were DNase-treated using DNase I (amplification grade; Sigma-Aldrich). DNase-treated RNA was split into two tubes (+RT and −RT), and cDNA was generated using the High Capacity RNA-cDNA kit (Applied Biosystems). Once complete, both reactions were adjusted to 5 ng/μl and stored at −20 °C. Approximately 5 ng of diluted cDNA and gene-specific primers were mixed with Platinum SYBR Green qPCR SuperMix-UDG with ROX (Invitrogen). The transcripts were measured using an ABI PRISM 7900 Sequence Detection System (Invitrogen). For all quantitative RT-PCR experiments, each sample was tested in triplicate, and gene expression levels were normalized to the reference gene RPL13A. Neuron-specific enolase (ENO2) (Gene ID, 2026; pair 1) and synaptophysin (SYP) (Gene ID, 6855; pair 2) human primers were from Sigma Life Science. All other primers were described previously ([4], [9]) and purchased from Integrated DNA Technologies.
(§2) Male NOD-SCID mice bearing subcutaneous LNCaP or LNCaP95 tumors were castrated when the tumor volume reached ∼100 mm^3. Seven days after castration, animals were injected intratumorally with 30 mg/kg of body weight SINT1 or a matching volume of vehicle (DMSO) every 3 days for a total of 15 days. Animal behavior and body weight were observed throughout the study period for signs of toxicity. Tumor volumes were calculated by the formula length × width × height × 0.5236. Tumors were excised 3 days after the last injection and prepared for immunohistochemistry or gene expression.

[2] = molecular target: T1, AR (Homo sapiens, UniProt P10275, T878A); experiment: AR-responsive luciferase reporters (PSA (6.1 kb), PB, ARR3) in LNCaP cells, SINT1 and EPI-002 alone or combined; type: cell-based; settings: 1 nM R1881 48 h
T1 construct: endogenous in cells; host or cells: LNCaP
T1 sequence (P10275 1-920 T878A): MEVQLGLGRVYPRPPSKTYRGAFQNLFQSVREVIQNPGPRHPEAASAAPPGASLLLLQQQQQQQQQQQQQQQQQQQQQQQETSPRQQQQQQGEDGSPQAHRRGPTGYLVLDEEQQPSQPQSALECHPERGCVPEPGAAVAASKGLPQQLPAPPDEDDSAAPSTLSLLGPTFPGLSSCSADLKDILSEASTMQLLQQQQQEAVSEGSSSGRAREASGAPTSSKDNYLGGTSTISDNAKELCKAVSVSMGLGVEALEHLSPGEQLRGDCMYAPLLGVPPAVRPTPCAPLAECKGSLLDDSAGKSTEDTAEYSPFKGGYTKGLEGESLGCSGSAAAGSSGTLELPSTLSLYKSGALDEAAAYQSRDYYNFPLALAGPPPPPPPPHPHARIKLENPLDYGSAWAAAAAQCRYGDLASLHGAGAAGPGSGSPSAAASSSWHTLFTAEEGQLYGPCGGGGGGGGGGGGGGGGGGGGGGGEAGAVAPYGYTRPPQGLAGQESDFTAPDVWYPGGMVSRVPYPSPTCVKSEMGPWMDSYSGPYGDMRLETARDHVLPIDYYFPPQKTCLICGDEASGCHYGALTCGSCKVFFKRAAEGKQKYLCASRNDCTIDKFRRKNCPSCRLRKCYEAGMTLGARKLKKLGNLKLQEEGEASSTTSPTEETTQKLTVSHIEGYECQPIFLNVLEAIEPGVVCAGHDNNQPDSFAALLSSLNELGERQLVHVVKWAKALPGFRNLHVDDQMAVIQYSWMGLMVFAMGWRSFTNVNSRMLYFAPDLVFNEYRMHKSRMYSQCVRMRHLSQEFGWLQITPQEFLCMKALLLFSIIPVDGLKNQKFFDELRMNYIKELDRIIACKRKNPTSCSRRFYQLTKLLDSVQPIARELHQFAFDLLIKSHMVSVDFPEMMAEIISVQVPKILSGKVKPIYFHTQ
Procedure: LNCaP cells were transfected with AR-responsive PSA (6.1 kb)-luciferase, PB-luciferase, and ARR3-luciferase reporters. Forty-eight hours later, cells were pretreated for 1 h with SINT1 (0–24 μM), EPI-002 (0–31 μM), or a combination with a constant ratio of 1:1.3 for EPI-002/SINT1 concentration. Cells were then incubated with 1 nM R1881 for 48 h, and a luciferase assay was performed. IC50 values for SINT1 for the three reporters were calculated using GraphPad Prism (version 6.01; GraphPad Software). The combination index of SINT1 and EPI-002 was calculated using CalcuSyn software. Combination indices >1, 1, and <1 indicate antagonism, additive affect, and synergy, respectively.

[3] = Lability of SINT1 over the course of the studies; type: physicochemical; settings: activity decreased over the course of the studies
Procedure: SINT1 is labile, and over the course of completing these studies its activity decreased. […] Therefore, we first evaluated its pharmacokinetics before in vivo studies were carried out to determine dose and route of delivery.

[4] = system: FL-AR- and AR-V7-regulated genes; experiment: AR-FL- and AR-V7-regulated gene expression (quantitative RT-PCR) in LNCaP95 cells; type: cell-based
Procedure: as §1

[5] = system: LNCaP xenografts; experiment: LNCaP CRPC xenografts in castrated mice; type: in vivo, NOD-SCID mice
Procedure: as §2
Xenograft sections were stained with hematoxylin and eosin and for Ki67 expression by Wax it Histology Inc. Cells that were positive for Ki67 were counted in sections from three xenografts for each treatment. For PSA and AR staining, dewaxed sections were microwaved for 10 min on full power in prewarmed Antigen Unmasking Solution (pH 6; Vector Laboratories, Inc.). The endogenous peroxidase activity was blocked by incubation in 3% H2O2 for 10 min followed by incubation in Clear Vision Histostaining Blocking Solution (UniCure Lab, Inc.) for 1 h at room temperature. Sections were incubated with AR-N20 (1:500 dilution) and PSA (1:5 dilution; overnight at 4 °C) primary antibodies. Samples were then incubated for 30 min at room temperature with secondary antibodies and mounted in Permount mounting medium (SP15–100, Fisher).

[6] = molecular target: T2, endogenous AR (Homo sapiens, UniProt P10275, T878A); experiment: Steroid receptor specificity: PSA(6.1kb)-luciferase reporter in LNCaP cells; type: cell-based; settings: 10 μM compound, 1 nM R1881, 48 h
T2 construct: endogenous in cells; host or cells: LNCaP
T2 sequence (P10275 1-920 T878A): T1 sequence (P10275 1-920 T878A)
Text: LNCaP cells were transfected with the reporter plasmid PSA(6.1kb)-luciferase, PRE-luciferase, or GRE-luciferase and expression vector for progesterone receptor (PR)-β or glucocorticoid receptor (GR)-α in serum-free, phenol red-free medium using Lipofectin (Invitrogen).
A, LNCaP cells were transfected with PSA (6.1 kb)-luciferase, PRE-luciferase, or GRE-luciferase reporters and expression vector for PRβ or GRα.

[7] = LNCaP95, 10 μM SINT1, 1 nM R1881 48 h

## CCC(=O)NC(CC(C)C(Cl)(Cl)Cl)C(=O)N1C(=O)C=C(OC)C1CC(C)C(Cl)Cl (stereo not drawn) [SINT1, Sintokamide A]
[1]; castrated mice, 30 mg/kg intratumorally every 3 days
  growth of LNCaP95 tumors: significantly reduce the growth
[1]; harvested LNCaP95 xenografts
  levels of expression of ENO2 and SYP genes (neuroendocrine differentiation): no significant changes
[1]; tumors harvested 3 days after last treatment
  levels of FL-AR and AR-V7 transcripts in harvested LNCaP95 xenografts: not significantly altered
[2]; IC50, ARR3-Luc
  IC50: 13.2 ± 1.19 µM
[2]; IC50, PB-Luc
  IC50: 11.6 ± 0.78 µM
[2]; IC50, PSA (6.1 kb)-Luc
  IC50: 10.7 ± 1.55 µM
[3]
  stability: labile
[4]; [7]
  androgen-induced transcript of FL-AR-regulated gene RHOU: exception
  androgen-induced transcripts of FL-AR-regulated genes KLK3/PSA, KLK2, TMPRSS2, NKX3.1, FKBP5 and SLC1A1: significantly repressed
[4]; LNCaP95, 10 μM SINT1, 48 h
  levels of AR-V7 target gene transcripts cyclin A2, CDC20, UBE2C and CDK1: significantly repressed
  levels of AR-V7 transcript: no significant effect
[4]; LNCaP95, 10 μM SINT1, 48 h, compared with vehicle control
  levels of FL-AR mRNA: did not lead to an increase
[5]; castrated mice, 30 mg/kg intratumorally every 3 days, five doses, n = 8, p = 0.0495
  CRPC tumor overall growth: 112 ± 13%
[5]; day 15 vs day of first dose
  animals achieving a serum PSA drop of ≥50%: six
[5]; immunohistochemistry
  number of Ki67-positive cells in harvested xenografts: reduced
[5]; immunohistochemistry, vs vehicle control
  levels of PSA in xenografts: marked decreases
[5]; immunohistochemistry, vs vehicle-treated
  levels and cellular localization of AR protein in xenografts: similar
[6]
  androgen-induced activity of endogenous AR (PSA (6.1 kb)-luciferase): significantly inhibited
